# Where two headings read alike, the source gives them in different places.
# Experiments:
# INS-1 cells [1] = assay: Cell viability assay: protection of INS-1 cells from tunicamycin (Tm)-induced loss of viability (CellTiter-Glo, intracellular ATP); format: cell-based, rat; details: for Emax / EC50: Rattus norvegicus; for Emax: % rescue from Tm (0.15 μg/mL)-induced reduction of INS-1 cell viability (intracellular ATP), Tm alone 0%, DMSO without Tm 100%, 72 h, read-out: Maximum % of Protection; for EC50: INS-1 cell viability, Tm 0.15 μg/mL, ten 2-fold serial titration points, GraphPad Prism
# Protocol: INS-1 cells were resuspended in RPMI 1640 medium containing 10% FBS and seeded at 5×10^3 cells/well in a 384-well plate. After overnight 24 h incubation, compounds were added to the wells at the indicated concentration using a pin-transfer robot (PerkinElmer). Tm in RPMI 1640 medium containing 10% FBS was then added at a final concentration of 0.15 μg/mL. After 72 h, the medium was removed and 20 μL of CellTiter-Glo reagent (Promega) was added. Luminescence was measured 10 min later using a Synergy Neo2 plate reader (Biotek).
# Hydroxy benzamide (HBA) derivatives were synthesized based on various scaffolds and evaluated for their viability of rat INS-1 β cells in the presence of tunicamycin (Tm), a potent ER stress inducer that inhibits N-linked glycosylation of proteins. The maximum activities and the concentrations that reach half-maximal activity (EC50) of the compounds were evaluated by the degree of increase in viability of INS-1 cells co-treated with the compounds in the presence of Tm compared with Tm treatment alone.
# INS-1 cells [2] = details: earlier work; protection of β-cell survival against ER stress; cited from earlier work
SMILES,Emax (INS-1 cells [1]; INS1) [%],EC50 (INS-1 cells [1]; INS1) [µM],other results
"Cc1ccc(C)c(NC(=O)c2nnn(-c3cccc(Cl)c3C)c2C)c1 [Compound 1, 1-(3-chloro-2-methylphenyl)-N-(2,5-dimethylphenyl)-5-methyl-1H-1,2,3-triazole-4-carboxamide, reference compound]",87,2.8,maximal activity (INS-1 cells [2]): 87%
"Oc1cccc(-c2ncc(-c3ccc(C(F)(F)F)cc3)[nH]2)c1O [Compound 1a, 3-(5-(4-(Trifluoromethyl)phenyl)-1H-imidazol-2-yl)benzene-1,2-diol]",14,0.26,Toxicity at rising compound concentration (in words) (INS-1 cells [1]; INS-1 cells with Tm): became toxic when the compound concentration arose; β-cell protective activity (in words) (INS-1 cells [1]; INS-1 cells with Tm): some β-cell protective activity at sub-micro molar concentrations
"COc1cc(-c2ncc(-c3ccc(C(F)(F)F)cc3)[nH]2)ccc1O [Compound 1b, 2-Methoxy-4-(5-(4-(trifluoromethyl)phenyl)-1H-imidazol-2-yl)phenol]",7,0.26,β-cell protective activity (in words) (INS-1 cells [1]; INS-1 cells with Tm): no improvement
"COc1ccc(-c2ncc(-c3ccc(C(F)(F)F)cc3)[nH]2)cc1 [Compound 1c, 2-(4-Methoxyphenyl)-5-(4-(trifluoromethyl)phenyl)-1H-imidazole]",17,0.21,β-cell protective activity (in words) (INS-1 cells [1]; INS-1 cells with Tm): no improvement
"COc1ccc(CNc2ncc(-c3ccc(C(F)(F)F)cc3)[nH]2)cc1 [Compound 2a, N-(4-methoxybenzyl)-5-(4-(trifluoromethyl)phenyl)-1H-imidazol-2-amine]",18,0.05,–
"COc1ccc(CNc2ncc(-c3ccccc3OC)[nH]2)cc1 [Compound 2b, N-(4-methoxybenzyl)-5-(2-methoxyphenyl)-1H-imidazol-2-amine]",9,0.021,β-cell protective activity (in words) (INS-1 cells [1]; INS-1 cells with Tm): reduced the protecting activity
"Cc1c(Cl)cccc1C(=O)NCc1cccc(C(F)(F)F)c1 [Compound 3a, 3-Chloro-2-methyl-N-(3-(trifluoromethyl)benzyl)benzamide]",83,10,–
"CCc1ccc(C(=O)NCc2cccc(C(F)(F)F)c2)cc1 [Compound 3b, 4-Ethyl-N-(3-(trifluoromethyl)benzyl)benzamide]",43,4.4,β-cell protective activity (in words) (INS-1 cells [1]; INS-1 cells with Tm): poorer β-cell protective activity
"O=C(NCc1cccc(C(F)(F)F)c1)c1cccc(O)c1 [Compound 3c, 3-Hydroxy-N-(3-(trifluoromethyl)benzyl)benzamide]",37,9.9,–
"O=C(NCc1cccc(C(F)(F)F)c1)c1ccc(O)c(O)c1 [Compound 3d, 3,4-Dihydroxy-N-(3-(trifluoromethyl)benzyl)benzamide]",51,20.5,–
"COc1cc(C(=O)NCc2cccc(C(F)(F)F)c2)ccc1O [Compound 3e, 4-Hydroxy-3-methoxy-N-(3-(trifluoromethyl)benzyl)benzamide]",100,3.1,–
"O=C(NCc1ccc(C(F)(F)F)cc1)c1ccc(O)c(O)c1 [Compound 3f, 3,4-Dihydroxy-N-(4-(trifluoromethyl)benzyl)benzamide]",100,2.2,"Concentration at which maximal protection is reached (INS-1 cells [1]; text of b115, unit printed as PM, unit of the source corrected): 10 µM"
"O=C(NCc1ccc(C(F)(F)F)cc1)c1cccc(O)c1O [Compound 3g, 2,3-Dihydroxy-N-(4-(trifluoromethyl)benzyl)benzamide]",100,3.1,–
"O=C(NCc1ccc(C(F)(F)F)cc1)c1ccc(O)cc1 [Compound 3h, 4-Hydroxy-N-(4-(trifluoromethyl)benzyl)benzamide]",100,0.27,–
"COc1cccc(C(=O)NCc2ccc(C(F)(F)F)cc2)c1 [Compound 3j, 3-Methoxy-N-(4-(trifluoromethyl)benzyl)benzamide]",71,25,–
"O=C(NCc1ccc(C(F)(F)F)cc1)c1cccc(OCC2CCCCC2)c1 [Compound 3k, 3-(Cyclohexylmethoxy)-N-(4-(trifluoromethyl)benzyl)benzamide]",100,0.72,–
"O=C(NCc1ccc(C(F)(F)F)cc1)c1cccc(OCC2CCNCC2)c1 [Compound 3l, 3-(Piperidin-4-ylmethoxy)-N-(4-(trifluoromethyl)benzyl)benzamide]",81,2.1,–
"COc1cccc(COc2cccc(C(=O)NCc3ccc(C(F)(F)F)cc3)c2)c1 [Compound 3m, 3-((3-Methoxybenzyl)oxy)-N-(4-(trifluoromethyl)benzyl)benzamide]",81,4.1,–
"O=C(NCc1ccc(C(F)(F)F)cc1)c1cccc(OCc2cccc(C(F)(F)F)c2)c1 [Compound 3n, N-(4-(Trifluoromethyl)benzyl)-3-((3-(trifluoromethyl)benzyl)oxy)benzamide]",58,6.3,β-cell protective activity (in words) (INS-1 cells [1]; INS-1 cells with Tm): markedly diminished activity
"CC(C)c1ccc(CNC(=O)c2cccc(O)c2)cc1 [Compound 3o, 3-Hydroxy-N-(4-isopropylbenzyl)benzamide]",82,1.7,–
"CN(C)c1ccc(CNC(=O)c2cccc(O)c2)cc1 [Compound 3p, N-(4-(Dimethylamino)benzyl)-3-hydroxybenzamide]",43,7.1,–
"O=C(NCc1cccc(O)c1)c1cccc(O)c1 [Compound 3q, 3-Hydroxy-N-(3-hydroxybenzyl)benzamide]",22,18.3,–
"COc1ccc(CNC(=O)c2cccc(O)c2)cc1 [Compound 3r, 3-Hydroxy-N-(4-methoxybenzyl)benzamide]",65,21.3,–
"COc1cc(CNC(=O)c2cccc(O)c2)ccc1O [Compound 3s, 3-Hydroxy-N-(4-hydroxy-3-methoxybenzyl)benzamide]",57,28.7,–
"COc1cc(CNC(=O)c2ccc(O)c(OC)c2)ccc1O [Compound 3t, 4-Hydroxy-N-(4-hydroxy-3-methoxybenzyl)-3-methoxybenzamide]",55,29.1,β-cell protective activity (in words) (INS-1 cells [1]; INS-1 cells with Tm): equally poor β-cell protective activity
"O=C(Cc1cccc(O)c1)NCc1ccc(C(F)(F)F)cc1 [Compound 4a, 2-(3-Hydroxyphenyl)-N-(4-(trifluoromethyl)benzyl)acetamide]",–,3.5,"Emax (INS-1 cells [1]; INS1, 72 h): 32%"
"O=C(NCc1ccc(C(F)(F)F)cc1)Nc1cccc(O)c1 [Compound 5a, 1-(3-Hydroxyphenyl)-3-(4-(trifluoromethyl)benzyl)urea]",65,2.6,–
"COc1cccc(NC(=O)NCc2ccc(C(F)(F)F)cc2)c1 [Compound 5b, 1-(3-Methoxyphenyl)-3-(4-(trifluoromethyl)benzyl)urea]",94,1.6,–
